In data set [1] the test system is HUVECs (Human umbilical vein endothelial cells). The experiment in a line: Inhibitory effects on HUVEC tube formation.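 Note: from minus no inhibition up to plus-plus-plus complete inhibition versus vehicle.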 In kind it is cell-based. The essentials: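 HUVECs within passage 5 were plated on bFGF-reduced polymerized Matrigel and incubated with or without compound. Tube formation assessed as changes in cell morphology by phase-contrast microscopy and photography.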

Data set [2] relates to blood vessel formation in Matrigel plugs. The experiment in a line: In vivo mouse matrigel plug assay (hemoglobin content of plug). On the set-up: species or system C57BL/6 mice. Here is the method: Antiangiogenic activities in vivo of the compounds of the formula 1 were determined by mouse matrigel plug assay.
The mixture of Matrigel, heparin (30 units), and bFGF (25 ng) were injected subcutaneously into C57BL/6 mice. The test compounds were injected subcutaneously at 2.2 mg/mL with matrigel, or administrated orally at 2 mg/day (twice a day, each 1 mg) during 4 days (total 8 mg/mouse). After 4-7 days, the skin of the mouse was pulled back, and matrigel plug was excised. The hemoglobin contents inside the Matrigel plugs were measured using the Drabkin method and Drabkin reagent (kit 525, Sigma) for the quantitation of blood vessel formation.

In data set [3] the test system is Chick chorioallantoic membrane (CAM). The data set can be described thus: CAM (chorioallantoic membrane) assay. Format: in vivo. As for the experimental part:
Chick chorioallantoic membrane (CAM) assays were performed to measure the inhibitory effects on angiogenesis in vivo of the compounds of the formula 1.
Fertilized chick eggs were incubated under constant humidified (90%) egg breeder at 37° C. On the third day of incubation, about 2 mL of egg albumin was aspirated by an 18-gauge hypodermic needle through the small hole drilled at the narrow end of the eggs, to detach the developing CAM from the shell. And the shell covering the air sac was punched out and removed by forcep, and the shell membrane on the floor of the air sac was peeled away. After more incubation of two more days, sample-loaded thermanox coverslips were air-dried, and applied to the CAM surface to test the angiogenic inhibition by the test compounds. Three days later, 1 to 2 mL of 10% fat emulsion (Intralipose) was injected into the chorioallantoic and observed avascular zone under a dissecting microscope. The negative control was implanted only thermanox coverslip, while the positive control was treated with retinoic acid (1 μg/egg). […] Independent experiment was repeated three times and at least more than 20 eggs in each experiment were used.

The test system of data set [4] is ischemic hearts. The experiment in a line: Cardioprotective activity in ischemic heart model of anesthetized rats. As to conditions: Rat in vivo, 0.3 mg/kg i.v. As for the experimental part:
In order to determine whether the compounds of formula 1 are protective for ischemic hearts, experiments determining the anti-ischemic effects of the compounds on rats were conducted as follows. Male rats (350-450 g, obtained from the Experimental Animal Team of the Korea Research Institute of Chemical Technology) were anesthetized by the intraperitoneal injection of pentobarbital at a dose of 75 mg/kg. After trachetomy, the rats were rendered to respire artificially at a rate of 60/min with a stroke volume of 10 ml/kg. Cannulars were inserted into the fermoral vein and the fermoral artery and used for drug administration and blood pressure measurement, respectively. In the ischemic myocardial injury models, the body temperature has an important influence on the results. To avoid the change in the body temperature, a body temperature measuring probe was inserted into the rectum of each rat and the body temperature was constantly kept at 37° C. with the aid of a homeothermic blanket control unit. Afterwards, during testing, a continuous measurement was made of the mean arterial blood pressures and heart rates from the rats. For the measurement of the blood pressure, a pressure transducer (Statham P23XL, Grass Ins., MA, U.S.A.) was used. The heart rate was measured by a tachometer (ECG/RATE Coupler, Hugo Sachs Electronic, German) identified as Biotachometer. In addition, all of the changes occurring were continuously recorded through the Gould 2000 chart recorder ([…] Linearcorder W R 3310, Hugo Sachs Electronic). The left coronary artery was occluded according to the Selye H. method as follows. The rats underwent a left thoracotomy operation for partial opening of the chest and the right-side chest was pressurized by the middle finger of the left hand to push the heart out. Immediately after the left anterior descending coronary artery hereinafter referred to as (LAD) was carefully stitched using a suture needle with 5-0 silk ligature, the heart was then repositioned in the thoracic cavity while both ends of the ligature were situated outside. The opposite ligature ends were passed through a PE tube (PE100, 2.5 cm) and allowed to stand loose for 20 min for stabilization. Via the cannula inserted into the femoral vein, vehicles or drugs were administered into the rats which were rendered to stand for 30 min in order to sufficiently elicit the efficacies of the drugs. […] From the images input into the computer, the area of the normal blood stream tissue region which appeared blue in a computer monitor and the area which appeared colorless were measured. The percentage of the colorless area to the total area of each slice was calculated and multiplied by the weight of each slice to determine the area at risk (AAR) of each slice. […]

Data set [5] relates to SPF SD rats. As to conditions: rat, in vivo, po.

Results on one compound are retold here after US7279497B2, “Benzopyran derivatives substituted with secondary amines including imidazole, their preparation and pharmaceutical compositions containing them” (Korea Research Institute of Chemical Technology, priority 2002, dated 2007).

For `COC(OC)[C@@]1(C)Oc2ccc([N+](=O)[O-])cc2[C@@H](N(Cc2ncc[nH]2)c2ccc(Cl)cc2)[C@@H]1O` [Example 1, (2S,3S,4R)-3,4-dihydro-2-dimethoxymethyl-3-hydroxy-2-methyl-6-nitro-4-[N-(4-chlorophenyl)-N-(1H-imidazol-2-ylmethyl)amino]-2H-1-benzopyran], the Tube formation entry in data set [1] (10 μM) is listed as “+”; in data set [1] (50 μM), “+”; in data set [1] (100 μM), “++”. Also, the “% Inhibition (hemoglobin quantity)” value came out at 79% in data set [2] (S. C, 2.2 mg/mL with matrigel) and 94% in data set [2] (oral, 2 mg/day during 4 days). For the same compound, the figures for the “% Inhibition (positive eggs)” value in data set [3] (0.5 μM/egg) and in data set [3] (1.5 μg/egg) were 62% and 84%, respectively. Besides, the “AAR/LV (%)” value in data set [4] is 33.4%. Further, the “IZ/AAR (%)” value in data set [4] was 41.2%. The “clinical symptoms, body weight and mortality” value in data set [5] is “no significant changes”.
